Target: Histone-lysine N-methyltransferase SUV39H2 (Human, UniProt Q9H5I1)
Assay: Suv 39H2 Assay
Procedure: Assay buffer (4 μL) was added into all the wells, including test compound and control wells (except for Sinefungin control wells), using the Multidrop Combi. The plate was centrifuged at 1000 rpm for 1 min. […] SUV39H2 (8 μL, final conc: optimized for each lot of the enzyme based on specific activity) was added by using the Multidrop Combi. The assay plate was centrifuged at 1000 rpm for 1 min. Assay buffer was used as background control, and incubated at room temperature for 3 hours. The reaction was stopped with 20 μL of 2.5 mg/mL Streptavidin SPA beads (final conc. 50 μg/well) in buffer using the Multidrop Combi and centrifuged for 1 min. The plate was loaded into the Trilux-Microbeta counter and a delayed read of 10 hours was made. The radioactive signal was measured at 1 min/well. Sinefungin and the internal standard compound were used as tool compounds to determine assay performance.

Histone-lysine N-methyltransferase SUV39H2, sequence (Q9H5I1 whole entry): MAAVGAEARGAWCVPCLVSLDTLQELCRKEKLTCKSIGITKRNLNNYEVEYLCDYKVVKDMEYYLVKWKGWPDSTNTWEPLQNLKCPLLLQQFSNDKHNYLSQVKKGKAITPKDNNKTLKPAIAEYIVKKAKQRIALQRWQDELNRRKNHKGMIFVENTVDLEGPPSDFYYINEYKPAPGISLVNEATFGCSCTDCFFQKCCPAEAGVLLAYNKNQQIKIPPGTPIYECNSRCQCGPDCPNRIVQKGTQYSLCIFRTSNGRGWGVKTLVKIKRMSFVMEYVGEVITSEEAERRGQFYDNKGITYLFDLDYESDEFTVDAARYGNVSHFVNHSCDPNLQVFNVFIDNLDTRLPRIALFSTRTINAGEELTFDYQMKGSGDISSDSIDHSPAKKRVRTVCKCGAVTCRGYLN

First: COc1cc(CO)c(-c2cn3ccc(N4CCN(CCNC(=O)OC(C)(C)C)CC4)cc3n2)cc1Cl [US10508109, Example 28]
Second: COc1cc(CO)c(-c2cn3ccc(N4CCN(CCO)CC4)cc3n2)cc1Cl [US10508109, Example 43]
The IC50 of the first is 2.5-fold higher: 0.021 µM for the first, 0.00854 µM for the second. The second is the more potent here.

`COc1cc(CO)c(-c2cn3ccc(N4CCC(NC(C)=O)C4)cc3n2)cc1Cl` (stereo unspecified) [US10508109, Example 37] and `COc1cc(CO)c(-c2cn3ccc(N4CCC(NC(N)=O)C4)cc3n2)cc1Cl` (stereo unspecified) [US10508109, Example 38] are within 1.5-fold of each other in IC50: 0.00435 µM for the first, 0.00411 µM for the second.

Going from `COc1cc(CO)c(-c2cn3ccc(N4CCC(N)CC4)nc3n2)cc1Cl` [US10508109, Example 42] to `COc1cc(CO)c(-c2cn3ccc(N4CC[C@H](N)C4)cc3n2)cc1Cl` [US10508109, Example 47], the IC50 falls from 0.079 µM to 0.00829 µM (9.5-fold). The second is the more potent here.

`COc1cc(CO)c(-c2cn3ccc(N(C)CCNC(=O)OC(C)(C)C)cc3n2)cc1Cl` [US10508109, Example 48] and `COc1cc(CO)c(-c2cn3ccc(N4CCC(NC(=O)CCNC(=O)OC(C)(C)C)C4)nc3n2)cc1Br` (stereo unspecified) [US10508109, Example 65] are within 1.5-fold of each other in IC50: 0.0124 µM for the first, 0.014 µM for the second.

First: COc1cc(CO)c(-c2cn3ccc(C4=CCN(CCN5CCCCC5)CC4)cc3n2)cc1Cl [US10508109, Example 147]
Second: COc1cc(CO)c(-c2cn3ccc(N4CCC(N5CCCS5(=O)=O)CC4)cc3n2)cc1Cl [US10508109, Example 182]
The IC50 of the first is 4.2-fold higher: 0.0295 µM for the first, 0.00697 µM for the second. The second is the more potent here.

`CCCS(=O)(=O)NC1CCN(c2ccn3cc(-c4cc(Cl)c(OC)cc4CO)nc3c2)CC1` [US10508109, Example 174] and `COc1cc(CO)c(-c2cn3ccc(N4CCC(NS(=O)(=O)N(C)C)CC4)cc3n2)cc1Cl` [US10508109, Example 181] are within 1.5-fold of each other in IC50: 0.0104 µM for the first, 0.0139 µM for the second.

First: COc1cc(CO)c(-c2cn3ccc(N4CCN(S(=O)(=O)C(C)C)CC4)cc3n2)cc1Cl [US10508109, Example 178]
Second: COc1cc(CO)c(-c2cn3ccc(N4CCN(S(=O)(=O)Cc5ccccc5)CC4)cc3n2)cc1Cl [US10508109, Example 179]
The IC50 of the first is 2.3-fold lower: 0.0143 µM for the first, 0.0322 µM for the second.

Compared with `COc1cc(CO)c(-c2cn3ccc(N4CCN(P(=O)(CO)OC)CC4)cc3n2)cc1Cl` (stereo unspecified) [US10508109, Example 203], `COc1cc(CO)c(-c2cn3ccc(OC4CCN(S(=O)(=O)c5cccs5)CC4)cc3n2)cc1Cl` [US10508109, Example 280] is 40-fold higher in IC50: 0.00177 µM for the first, 0.0711 µM for the second.
